Experimental data taken from ChEMBL document CHEMBL6182944, “Substrate Specificity of the Organic Cation Transporters MATE1 and MATE2K and Functional Overlap with OCT1 and OCT2” (J Med Chem, 2025).

What was measured:
MATE2-K = target: T1, MATE2-K (Homo sapiens, UniProt Q86VL8); test: in vitro
T1 sequence (Q86VL8 whole entry): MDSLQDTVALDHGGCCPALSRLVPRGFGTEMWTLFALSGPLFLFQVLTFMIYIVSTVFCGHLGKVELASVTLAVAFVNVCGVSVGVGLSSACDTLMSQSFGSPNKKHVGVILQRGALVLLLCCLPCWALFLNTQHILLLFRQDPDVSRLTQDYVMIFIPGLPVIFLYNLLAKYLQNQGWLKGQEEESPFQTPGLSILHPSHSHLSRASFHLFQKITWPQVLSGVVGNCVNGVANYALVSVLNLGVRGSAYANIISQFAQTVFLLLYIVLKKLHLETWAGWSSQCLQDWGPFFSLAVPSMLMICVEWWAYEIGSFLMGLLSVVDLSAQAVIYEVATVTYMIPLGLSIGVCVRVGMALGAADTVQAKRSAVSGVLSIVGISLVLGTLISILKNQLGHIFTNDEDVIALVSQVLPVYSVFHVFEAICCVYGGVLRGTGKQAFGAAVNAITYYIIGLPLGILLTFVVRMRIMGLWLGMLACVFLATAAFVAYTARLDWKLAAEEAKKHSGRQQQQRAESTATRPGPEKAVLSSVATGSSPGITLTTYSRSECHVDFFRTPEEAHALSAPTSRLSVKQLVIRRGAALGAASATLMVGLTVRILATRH

MATE1 = target: T2, MATE1 (Homo sapiens, UniProt Q96FL8); test: in vitro
T2 sequence (Q96FL8 whole entry): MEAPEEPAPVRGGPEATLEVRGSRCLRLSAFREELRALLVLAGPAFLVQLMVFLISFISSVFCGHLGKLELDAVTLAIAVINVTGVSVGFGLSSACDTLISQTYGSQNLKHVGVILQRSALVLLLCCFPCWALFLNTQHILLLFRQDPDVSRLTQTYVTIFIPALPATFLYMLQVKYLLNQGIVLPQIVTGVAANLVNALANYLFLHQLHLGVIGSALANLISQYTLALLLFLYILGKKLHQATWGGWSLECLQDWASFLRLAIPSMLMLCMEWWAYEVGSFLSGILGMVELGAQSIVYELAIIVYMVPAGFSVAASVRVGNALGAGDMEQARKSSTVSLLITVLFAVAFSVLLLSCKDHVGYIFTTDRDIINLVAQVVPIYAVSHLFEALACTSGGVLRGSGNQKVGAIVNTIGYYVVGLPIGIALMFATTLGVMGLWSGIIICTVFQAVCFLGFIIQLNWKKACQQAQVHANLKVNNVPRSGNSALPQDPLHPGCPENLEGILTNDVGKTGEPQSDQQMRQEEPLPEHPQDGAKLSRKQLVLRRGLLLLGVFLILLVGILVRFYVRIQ

[1] = HEK293 cells expressing MATE2-K

Row | SMILES | uptake ratio at 1 min, 2.5 µM (MATE2-K; [1]) | uptake ratio at 1 min, 2.5 µM (MATE1; HEK293 cells expressing MATE1) | uptake ratio at 1 min, 2.5 µM (MATE2-K; hek293) | uptake ratio at 1 min, 2.5 µM (MATE1; hek293)
1 | CCC(Cc1ccc2c(c1)OCO2)NC (centres undefined) | < 2 | < 2 | – | –
2 | O=C(O[C@H]1C[C@H]2CC[C@@H](C1)[N+]21CCCC1)C(O)(c1ccccc1)c1ccccc1 [TROSPIUM] | < 2 | > 2 | – | –
3 | COc1ccc(CCN)cc1 | < 2 | < 2 | – | –
4 | C[N+](C)(C)CCO [CHOLINE] | – | – | < 2 | < 2
5 | CNCc1ccc(-c2[nH]c3cc(F)cc4c3c2CCNC4=O)cc1 [RUCAPARIB] | > 2 | > 2 | – | –
6 | C=CCN1CCCC1CNC(=O)c1cc2[nH]nnc2cc1OC (centres undefined) [ALIZAPRIDE] | > 2 | > 2 | – | –
7 | CC(C)(CO)[C@@H](O)C(=O)NCCC(=O)O [PANTOTHENIC ACID] | < 2 | < 2 | – | –
8 | N=C(N)NC(=N)Nc1ccc(Cl)cc1 [4-CHLOROPHENYLBIGUANIDE] | > 2 | > 2 | – | –
9 | O=C(O[C@H]1C[N+]2(CCCOc3ccccc3)CCC1CC2)C(O)(c1cccs1)c1cccs1 | < 2 | > 2 | – | –
10 | COc1cc2c(cc1OC)-c1cc3ccc4c(c3c[n+]1CC2)OCO4 | > 2 | > 2 | – | –
11 | O=C(O)c1cccnc1 [NIACIN] | – | – | < 2 | < 2
12 | CC(C)N(CCC(C(N)=O)(c1ccccc1)c1ccccn1)C(C)C (centres undefined) [DISOPYRAMIDE] | < 2 | < 2 | – | –
13 | CC(=O)Nc1ccc(OCC(O)CNC(C)C)cc1 (centres undefined) [PRACTOLOL] | – | – | > 2 | > 2
14 | NCCc1c[nH]c2ccc(O)cc12 [SEROTONIN] | > 2 | > 2 | – | –
15 | CC[C@@]1(O)C(=O)OCc2c1cc1n(c2=O)Cc2cc3c(CN(C)C)c(O)ccc3nc2-1 [TOPOTECAN] | > 2 | > 2 | – | –
16 | NCCCCNCCCN [SPERMIDINE] | < 2 | < 2 | – | –
17 | NCC(O)c1cccc(O)c1 (centres undefined) [NORFENEFRINE] | < 2 | > 2 | – | –
18 | COc1cc(CCN)ccc1O | < 2 | > 2 | – | –
19 | NC(N)=NCCCCN=C(N)N [ARCAINE] | > 2 | > 2 | – | –
20 | N=C(N)NCc1cccc(I)c1 [IOBENGUANE] | > 2 | > 2 | – | –
21 | CN(C)CCc1c[nH]c2ccc(CS(=O)(=O)N3CCCC3)cc12 [ALMOTRIPTAN] | > 2 | > 2 | – | –
22 | CC(C)NCC(O)COc1ccc(CCOCC2CC2)cc1 (centres undefined) [BETAXOLOL] | – | – | < 2 | < 2
23 | CN1CCN(CC(=O)N2c3ccccc3C(=O)Nc3cccnc32)CC1 [PIRENZEPINE] | < 2 | > 2 | – | –
24 | COc1cc(C(O)CN)ccc1O (centres undefined) [NORMETANEPHRINE] | < 2 | < 2 | – | –
25 | CNCCc1c[nH]c2ccc(O)cc12 | > 2 | > 2 | – | –
26 | O=S(=O)(c1cccc2cnccc12)N1CCCNCC1 [FASUDIL] | > 2 | < 2 | – | –
27 | CC[C@@H]1C(=O)OC[C@@H]1Cc1cncn1C [PILOCARPINE] | < 2 | < 2 | – | –
28 | O=C(C[S+]([O-])Cc1ccco1)NC/C=C\COc1cc(CN2CCCCC2)ccn1 (centres undefined) [LAFUTIDINE] | < 2 | < 2 | – | –

Row | SMILES | uptake ratio at 1 min, 2.5 µM (MATE2-K; [1]) | uptake ratio at 1 min, 2.5 µM (MATE1; HEK293 cells expressing MATE1) | uptake ratio at 1 min, 2.5 µM (MATE2-K; hek293) | uptake ratio at 1 min, 2.5 µM (MATE1; hek293)
29 | COc1cccc2c1C(=O)c1c(O)c3c(c(O)c1C2=O)C[C@@](O)(C(C)=O)C[C@@H]3O[C@H]1C[C@H](N)[C@H](O)[C@H](C)O1 [DAUNORUBICIN] | < 2 | < 2 | – | –
30 | NC(=O)C1(N2CCCCC2)CCN(CCCC(=O)c2ccc(F)cc2)CC1 [PIPAMPERONE] | < 2 | < 2 | – | –
31 | CNS(=O)(=O)CCc1ccc2[nH]cc(C3CCN(C)CC3)c2c1 | > 2 | > 2 | – | –
32 | CNCCc1ccccn1 [BETAHISTINE] | – | – | < 2 | < 2
33 | COc1ccc(CCN)cc1O | < 2 | > 2 | – | –
34 | O=C1CC2(CCCC2)CC(=O)N1CCCCN1CCN(c2ncccn2)CC1 [BUSPIRONE] | – | – | < 2 | > 2
35 | O=C1CCc2ccc(OCCCCN3CCN(c4cccc(Cl)c4Cl)CC3)cc2N1 [ARIPIPRAZOLE] | – | – | < 2 | < 2
36 | CN(C)C(=N)NCCC[C@H](N)C(=O)O | < 2 | < 2 | – | –
37 | CN(CC(=O)O)C(=N)N [CREATINE] | < 2 | < 2 | – | –
38 | CC(C)NCC(O)COc1cccc2[nH]ccc12 (centres undefined) [PINDOLOL] | < 2 | > 2 | – | –
39 | CN(C)CCCN1c2ccccc2Sc2ccc(Cl)cc21 [CHLORPROMAZINE] | – | – | < 2 | < 2
40 | O=C(NCCNCC(O)COc1ccc(O)cc1)N1CCOCC1 (centres undefined) [XAMOTEROL] | > 2 | > 2 | – | –
41 | NCCc1c[nH]cn1 [HISTAMINE] | – | – | < 2 | > 2
42 | CCNCC(O)c1cccc(O)c1 (centres undefined) [ETILEFRINE] | > 2 | > 2 | – | –
43 | CC(=O)c1cc2cccc(OCC(O)CNC(C)C)c2o1 (centres undefined) [BEFUNOLOL] | < 2 | < 2 | – | –
44 | Cc1ncc(C[n+]2csc(CCOP(=O)(O)O)c2C)c(N)n1 [MONOPHOSPHOTHIAMINE] | < 2 | < 2 | – | –
45 | NCC(O)c1ccc(O)cc1 (centres undefined) [OCTOPAMINE] | < 2 | > 2 | – | –
46 | CC(C)NCC(O)c1ccc(O)c(O)c1 (centres undefined) [ISOPROTERENOL] | > 2 | > 2 | – | –
47 | CNCC(O)c1ccc(O)cc1 (centres undefined) | < 2 | > 2 | – | –
48 | C=CCN1CCCC1CNC(=O)c1cc(S(N)(=O)=O)cc(OC)c1OC (centres undefined) [VERALIPRIDE] | > 2 | > 2 | – | –
49 | CN1CCC[C@@H]1Cc1c[nH]c2ccc(CCS(=O)(=O)c3ccccc3)cc12 | < 2 | < 2 | – | –
50 | NC(N)=Nc1nc(CSCCC(N)=NS(N)(=O)=O)cs1 [FAMOTIDINE] | – | – | > 2 | –
51 | Clc1ccc(COC(Cn2ccnc2)c2ccc(Cl)cc2Cl)c(Cl)c1 (centres undefined) [MICONAZOLE] | < 2 | < 2 | – | –
52 | OC(CNCC(O)C1CCc2cc(F)ccc2O1)C1CCc2cc(F)ccc2O1 (centres undefined) [NEBIVOLOL] | < 2 | < 2 | – | –
53 | C1CCN2C[C@H]3C[C@H](CN4CCCC[C@@H]34)[C@H]2C1 | > 2 | > 2 | – | –
54 | CNC(=C[N+](=O)[O-])NCCSCc1csc(CN(C)C)n1 [NIZATIDINE] | > 2 | > 2 | – | –
55 | N=C(N)NCCCCN [AGMATINE] | < 2 | < 2 | – | –
